From patent publication US10428066B2, “Imidazo[4,5-C]pyridine and pyrrolo[2,3-C]pyridine derivatives as SSAO inhibitors” (PROXIMAGEN, LLC, priority 2013, dated 2019)

Tests used:
[1] = target: human ether a go-go related gene (hERG) K+ channel (Homo sapiens (Human), UniProt Q12809); test: hERG assay, IonWorks patch clamp electrophysiology; assay type: cell-based; conditions: Chinese Hamster Lung cell line stably expressing hERG, maximum assay concentration 11 uM
Description: Compounds of the invention were tested for inhibition of the human ether a go-go related gene (hERG) K^+ channel using IonWorks patch clamp electrophysiology. 8 Point concentration-response curves were generated on two occasions using 3-fold serial dilutions from the maximum assay concentration (11 uM). Electrophysiological recordings were made from a Chinese Hamster Lung cell line stably expressing the full length hERG channel. Single cell ion currents were measured in the perforated patch clamp configuration (100 ug/mL amphoterocin) at room temperature using an IonWorks Quattro instrument. The internal solution contained 140 mM KCl, 1 mM MgCl2, 1 mM EGTA and 20 mM HEPES and was buffered to pH 7.3. The external solution contained 138 mM NaCl, 2.7 mM KCl, 0.9 mM CaCl2, 0.5 mM MgCl2, 8 mM Na2HPO4 and 1.5 mM KH2PO4, and was buffered to pH 7.3. […] This sequence was repeated 5 times at a frequency of 0.25 Hz. Currents were measured from the tail step at the 5th pulse, and referenced to the holding current. Compounds were incubated for 6-7 min prior to a second measurement of the hERG signal using an identical pulse train. A minimum of 17 cells were required for each plC50 curve fit. A control compound (quinidine) was used (see Table 20 below).

[2] = target: purified recombinantly expressed human SSAO (Homo sapiens (Human), UniProt Q16853); test: SSAO enzyme inhibition assay (HRP-coupled hydrogen peroxide detection or 14C-benzaldehyde detection, benzylamine substrate); assay type: biochemical; conditions: human recombinant SSAO, RT
Description: All primary assays were performed at RT. with purified recombinantly expressed human SSAO. Enzyme was prepared essentially as described in Öhman et al. (Protein Expression and Purification 46 (2006) 321-331). In addition, secondary- and selectivity assays were performed using SSAO prepared from various tissues or purified rat recombinant SSAO. The enzyme activity was assayed with benzylamine as substrate by measuring either benzaldehyde production, using ^14C-labeled substrate, or by utilizing the production of hydrogen peroxide in a horseradish peroxidase (HRP) coupled reaction. Briefly, test compounds were dissolved in dimethyl sulfoxide (DMSO) to a concentration of 10 mM. Dose-response measurements were assayed by either creating 1:10 serial dilutions in DMSO to produce a 7 point curve or by making 1:3 serial dilutions in DMSO to produce 11 point curves.
In a horseradish peroxidase (HRP) coupled reaction, hydrogen peroxide oxidation of 10-acetyl-3,7-dihydroxyphenoxazine produced resorufin, which is a highly fluorescent compound (Zhout and Panchuk-Voloshina. Analytical Biochemistry 253 (1997) 169-174; Amplex® Red Hydrogen Peroxide/peroxidase Assay kit, Invitrogen A22188). Enzyme and compounds in 50 mM sodium phosphate, pH 7.4 were set to pre-incubate in flat-bottomed microtiter plates for approximately 15 min before initiating the reaction by addition of a mixture of HRP, benzylamine and Amplex reagent. Benzylamine concentration was fixed at a concentration corresponding to the Michaelis constant, determined using standard procedures. Fluorescence intensity was then measured at several time points during 1-2 h, exciting at 544 nm and reading the emission at 590 nm. For the human SSAO assay final concentrations of the reagents in the assay wells were: SSAO enzyme 1 ug/ml, benzylamine 100 uM, Amplex reagent 20 uM, HRP 0.1 U/mL and varying concentrations of test compound. The inhibition was measured as % decrease of the signal compared to a control without inhibitor (only diluted DMSO). The background signal from a sample containing no SSAO enzyme was subtracted from all data points. Data was fitted to a four parameter logistic model and IC50 values were calculated using the GraphPad Prism 4 or XLfit 4 programs.
SSAO activity was assayed using 14C-labeled benzylamine and analysed by measuring radioactive benzaldehyde. In a white 96-well optiplate (Packard), 20 uL of diluted test compound was pre-incubated at room temperature with 20 uL SSAO enzyme for approximately 15 min with continuous agitation. All dilutions were made with PBS. The reaction was initiated by adding 20 uL of the benzylamine substrate solution containing [7-14C] Benzylamine hydrochloride (CFA589, GE Healthcare). The plate was incubated for 1 h as above after which the reaction was stopped by acidification (10 uL 1M aq HCl). Then 90 uL Micro Scint-E solution (Perkin-Elmer) was added to each well and the plate was continuously mixed for 15 min. Phase separation occurred instantly and activity was read in a Topcount scintillation counter (Perkin-Elmer). In the final reaction well, the human recombinant SSAO concentration was 10 ug/ml. In order to optimize sensitivity, the substrate concentration was decreased as compared to the HRP coupled assay in order to get a higher fraction of radioactive product. In the human SSAO assay, benzylamine concentration was 40 uM (0.2 uCi/mL). Data was analysed as above.

Sequence of purified recombinantly expressed human SSAO (Q16853 29-763): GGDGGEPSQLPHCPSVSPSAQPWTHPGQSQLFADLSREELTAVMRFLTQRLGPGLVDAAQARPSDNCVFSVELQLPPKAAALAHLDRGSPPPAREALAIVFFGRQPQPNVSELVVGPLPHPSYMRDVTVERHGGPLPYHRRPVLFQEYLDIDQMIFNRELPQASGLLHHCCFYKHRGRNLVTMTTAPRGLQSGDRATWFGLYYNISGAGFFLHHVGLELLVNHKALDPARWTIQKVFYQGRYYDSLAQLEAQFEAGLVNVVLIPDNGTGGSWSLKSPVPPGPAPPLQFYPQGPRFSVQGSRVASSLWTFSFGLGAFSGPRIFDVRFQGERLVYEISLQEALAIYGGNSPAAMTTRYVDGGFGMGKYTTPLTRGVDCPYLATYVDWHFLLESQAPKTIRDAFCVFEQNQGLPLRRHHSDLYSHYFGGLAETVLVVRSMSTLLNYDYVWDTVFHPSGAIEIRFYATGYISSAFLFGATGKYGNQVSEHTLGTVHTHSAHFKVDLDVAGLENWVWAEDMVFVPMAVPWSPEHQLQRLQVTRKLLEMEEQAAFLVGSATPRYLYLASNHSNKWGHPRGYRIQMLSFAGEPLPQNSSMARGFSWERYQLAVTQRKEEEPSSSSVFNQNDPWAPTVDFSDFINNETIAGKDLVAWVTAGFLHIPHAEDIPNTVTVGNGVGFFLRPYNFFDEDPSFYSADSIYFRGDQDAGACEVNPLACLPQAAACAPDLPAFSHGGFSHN
Sequence of human ether a go-go related gene (hERG) K+ channel (Q12809 whole entry): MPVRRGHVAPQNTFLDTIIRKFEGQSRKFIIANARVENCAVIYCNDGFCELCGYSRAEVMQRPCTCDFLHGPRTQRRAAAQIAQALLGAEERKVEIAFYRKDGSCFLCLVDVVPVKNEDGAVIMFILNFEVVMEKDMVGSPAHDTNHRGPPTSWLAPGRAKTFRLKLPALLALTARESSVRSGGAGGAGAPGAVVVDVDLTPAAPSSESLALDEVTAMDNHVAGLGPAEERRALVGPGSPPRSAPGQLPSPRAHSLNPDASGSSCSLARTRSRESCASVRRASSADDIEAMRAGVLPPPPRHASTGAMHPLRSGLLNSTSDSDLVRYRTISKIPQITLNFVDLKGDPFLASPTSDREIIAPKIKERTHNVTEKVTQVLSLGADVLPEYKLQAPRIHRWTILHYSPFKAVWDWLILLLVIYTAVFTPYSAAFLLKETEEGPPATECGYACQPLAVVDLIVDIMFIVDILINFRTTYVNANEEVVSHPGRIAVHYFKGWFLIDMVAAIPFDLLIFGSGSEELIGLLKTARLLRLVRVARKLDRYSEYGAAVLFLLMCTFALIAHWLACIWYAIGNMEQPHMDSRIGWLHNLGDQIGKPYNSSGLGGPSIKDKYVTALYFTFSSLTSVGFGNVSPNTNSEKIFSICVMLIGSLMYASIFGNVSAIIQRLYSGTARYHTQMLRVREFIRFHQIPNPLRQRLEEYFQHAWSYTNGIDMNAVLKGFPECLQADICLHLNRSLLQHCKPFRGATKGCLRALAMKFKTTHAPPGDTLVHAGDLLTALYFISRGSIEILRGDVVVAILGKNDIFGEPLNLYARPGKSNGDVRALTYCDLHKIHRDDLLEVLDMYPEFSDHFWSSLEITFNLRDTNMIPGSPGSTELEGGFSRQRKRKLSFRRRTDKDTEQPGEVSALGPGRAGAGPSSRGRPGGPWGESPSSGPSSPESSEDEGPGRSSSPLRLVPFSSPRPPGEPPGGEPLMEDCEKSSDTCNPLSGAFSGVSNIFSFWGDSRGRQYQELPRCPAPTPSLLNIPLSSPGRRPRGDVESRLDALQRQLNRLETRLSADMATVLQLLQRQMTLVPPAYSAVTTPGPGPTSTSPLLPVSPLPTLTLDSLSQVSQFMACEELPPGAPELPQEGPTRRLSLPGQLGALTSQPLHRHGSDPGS

Compound | IC50 [1] | IC50 [2]
Clc1ccc(-n2c(-c3ccc(N4CCOCC4)nn3)nc3ccncc32)cc1 [Example 4, 4-{6-[3-(4-Chlorophenyl)-3H-imidazo[4,5-c]pyridin-2-yl]pyridazin-3-yl}morpholine] | 1 to 10 µM | –
Clc1ccc(-n2c(-c3ccc(N4CCOCC4)nc3)nc3ccncc32)cc1 [Example 47, 4-{5-[3-(4-Chlorophenyl)-3H-imidazo[4,5-c]pyridin-2-yl]pyridin-2-yl}morpholine] | 1 to 10 µM | –
Clc1ccc(-n2c(-c3cnc(N4CCOCC4)nc3)nc3ccncc32)cc1 [Example 51, 4-{5-[3-(4-Chlorophenyl)-3H-imidazo[4,5-c]pyridin-2-yl]pyrimidin-2-yl}morpholine] | 1 to 10 µM | –
Cc1ccc(-n2c(-c3ccc(N4CCOCC4)nc3)nc3ccncc32)c(F)c1 [Example 67, 4-{5-[3-(2-Fluoro-4-methylphenyl)-3H-imidazo[4,5-c]pyridin-2-yl]pyridin-2-yl}morpholine] | 1 to 10 µM | –
CS(=O)(=O)NC1CCN(c2ccc(-c3nc4ccncc4n3-c3ccc(Cl)cc3)cn2)CC1 [Example 88, N-(1-{5-[3-(4-Chlorophenyl)-3H-imidazo[4,5-c]pyridin-2-yl]pyridin-2-yl}piperidin-4-yl)methanesulfonamide] | 1 to 10 µM | –
NC(=O)N1CCCN(c2ccc(-c3nc4ccncc4n3-c3ccc(F)cc3)cn2)CC1 [Example 94, 4-{5-[3-(4-Fluorophenyl)-3H-imidazo[4,5-c]pyridin-2-yl]pyridin-2-yl}-1,4-diazepane-1-carboxamide] | – | 200 to 1200 nM
c1ccc(-n2c(-c3cnc(N4CCOCC4)nc3)nc3ccncc32)cc1 [Example 95, 4-(5-{3-Phenyl-3H-imidazo[4,5-c]pyridin-2-yl}pyrimidin-2-yl) morpholine] | – | 50 to 200 nM
c1cc2nc(-c3cnc(N4CCOCC4)nc3)n(-c3ccc(C4CC4)cc3)c2cn1 [Example 96, 4-{5-[3-(4-Cyclopropylphenyl)-3H-imidazo[4,5-c]pyridin-2-yl]pyrimidin-2-yl}morpholine] | – | 50 to 200 nM
Cc1ccc(-n2c(-c3cnc(N4CCOCC4)cc3C)nc3ccncc32)cc1 [Example 97, 4-{4-Methyl-5-[3-(4-methylphenyl)-3H-imidazo[4,5-c]pyridin-2-yl]pyridin-2-yl}morpholine] | – | 200 to 1200 nM
Fc1ccc(-n2c(-c3cnc(N4CCOCC4)c(F)c3)nc3ccncc32)cc1 [Example 98, 4-{3-Fluoro-5-[3-(4-fluorophenyl)-3H-imidazo[4,5-c]pyridin-2-yl]pyridin-2-yl}morpholine] | – | 50 to 200 nM
Cc1cc(NC2CCOCC2)ncc1-c1nc2ccncc2n1-c1ccc(F)cc1 [Example 100, 5-[3-(4-Fluorophenyl)-3H-imidazo[4,5-c]pyridin-2-yl]-4-methyl-N-(oxan-4-yl)pyridin-2-amine] | – | 200 to 1200 nM
Cc1cc(NCC2CC2)ncc1-c1nc2ccncc2n1-c1ccc(F)cc1 [Example 101, N-(Cyclopropylmethyl)-5-[3-(4-fluorophenyl)-3H-imidazo[4,5-c]pyridin-2-yl]-4-methylpyridin-2-amine] | – | 50 to 200 nM
Cc1ccc(-n2c(-c3ccc(N4C[C@@H](C)O[C@@H](C)C4)nc3)nc3ccncc32)cn1 [Example 103, (2R,6S)-2,6-Dimethyl-4-{5-[3-(6-methylpyridin-3-yl)-3H-imidazo[4,5-c]pyridin-2-yl]pyridin-2-yl}morpholine; tris(trifluoroacetic acid)] | – | 50 to 200 nM
Nc1ccc(-c2nc3ccncc3n2-c2ccc(Cl)cc2F)cn1 [Example 105, 5-[3-(4-Chloro-2-fluorophenyl)-3H-imidazo[4,5-c]pyridin-2-yl]pyridin-2-amine] | – | 200 to 1200 nM
CN1CCN(c2ccc(-c3nc4ccncc4n3-c3ccc(F)cc3)cn2)CC1=O [Example 106, 4-{5-[3-(4-Fluorophenyl)-3H-imidazo[4,5-c]pyridin-2-yl]pyridin-2-yl}-1-methylpiperazin-2-one] | – | 50 to 200 nM
Cc1nc(N2CCOCC2)ccc1-c1nc2ccncc2n1-c1ccc(F)cc1 [Example 108, 4-{5-[3-(4-Fluorophenyl)-3H-imidazo[4,5-c]pyridin-2-yl]-6-methylpyridin-2-yl}morpholine] | – | 200 to 1200 nM
CN(C)c1cc(-c2nc3ccncc3n2-c2ccc(F)cc2)ccn1 [Example 109, 4-[3-(4-Fluorophenyl)-3H-imidazo[4,5-c]pyridin-2-yl]-N,N-dimethylpyridin-2-amine] | – | 200 to 1200 nM
Nc1ccc(-c2nc3ccncc3n2-c2ccc(Cl)cc2)cn1 [Example 110, 5-[3-(4-Chlorophenyl)-3H-imidazo[4,5-c]pyridin-2-yl]pyridin-2-amine] | – | 200 to 1200 nM
Cn1ccc(-c2nc3ccncc3n2-c2ccc(F)cc2)cc1=O [Example 114, 4-[3-(4-Fluorophenyl)-3H-imidazo[4,5-c]pyridin-2-yl]-1-methyl-1,2-dihydropyridin-2-one] | – | 200 to 1200 nM
O=c1cc(-c2nc3ccncc3n2-c2ccc(Cl)cc2F)ccn1C1CC1 [Example 116, 4-[3-(4-Chloro-2-fluorophenyl)-3H-imidazo[4,5-c]pyridin-2-yl]-1-cyclopropyl-1,2-dihydropyridin-2-one] | – | 50 to 200 nM
COCCN(C)c1ncc(-c2nc3ccncc3n2-c2ccc(C)cc2)cn1 [Example 117, N-(2-Methoxyethyl)-N-methyl-5-[3-(4-methylphenyl)-3H-imidazo[4,5-c]pyridin-2-yl]pyrimidin-2-amine] | – | 200 to 1200 nM
Cc1ccc(-n2c(-c3cnc(NC4CCOCC4)nc3)nc3ccncc32)cc1 [Example 119, 5-[3-(4-Methylphenyl)-3H-imidazo[4,5-c]pyridin-2-yl]-N-(oxan-4-yl)pyrimidin-2-amine; bis(trifluoroacetic acid)] | – | 50 to 200 nM
CN1CCN(C(=O)c2ccc(-c3cc4ccncc4n3-c3ccc(Cl)cc3)cc2)CC1 [Example 125, 1-({4-[1-(4-Chlorophenyl)-1H-pyrrolo[2,3-c]pyridin-2-yl]phenyl}carbonyl)-4-methylpiperazine] | – | 200 to 1200 nM
Cc1ccc(-n2c(-c3cnc(N4CCOCC4)nc3)cc3ccncc32)cc1 [Example 130, 4-{5-[1-(4-Methylphenyl)-1H-pyrrolo[2,3-c]pyridin-2-yl]pyrimidin-2-yl}morpholine] | – | 50 to 200 nM
CCn1ccc(-c2cc3ccncc3n2-c2ccc(Cl)cc2)cc1=O [Example 144, 4-[1-(4-Chlorophenyl)-1H-pyrrolo[2,3-c]pyridin-2-yl]-1-ethyl-1,2-dihydropyridin-2-one] | – | 50 to 200 nM
O=c1cc(-c2cc3ccncc3n2-c2ccc(Cl)cc2)cn[nH]1 [Example 146, 5-[1-(4-Chlorophenyl)-1H-pyrrolo[2,3-c]pyridin-2-yl]-2,3-dihydropyridazin-3-one] | – | 50 to 200 nM
Clc1ccc(-n2c(-c3cncc(Cl)c3)cc3ccncc32)cc1 [Example 150, 3-Chloro-5-[1-(4-chlorophenyl)-1H-pyrrolo[2,3-c]pyridin-2-yl]pyridine] | – | 50 to 200 nM
Clc1ccc(-n2c(-c3ccc(-n4cccn4)nc3)cc3ccncc32)cc1 [Example 151, 5-[1-(4-Chlorophenyl)-1H-pyrrolo[2,3-c]pyridin-2-yl]-2-(1H-pyrazol-1-yl)pyridine; bis(trifluoroacetic acid)] | – | 50 to 200 nM
